Measurements from patent publication US20210284622A1, “BIOACTIVE POLYMERS WITH ANTI=FOULING PROPERTIES FOR MEDICAL AND DENTAL USES” (OREGON HEALTH & SCIENCE UNIVERSITY, priority 2020, published 2021).

Assays:
Assay type in all cases: cell-based
S. mutans [1] = experiment: Minimum inhibitory concentration (MIC) against S. mutans, serial dilution, TH medium plus sucrose, 96 h; details: Streptococcus mutans, S. mutans in TH medium plus sucrose, 37° C. aerobically
Procedure: Methods: G43, and its non-binding counterpart, G43TEG (N-(2-carbamoyl-4-(2-(2-(2-(2-hydroxyethoxy)ethoxy)ethoxy)ethoxy)phenyl)-5-nitrobenzo[b]thiophene-2-carboxamide), were synthesized and minimum inhibitory concentration (MIC) against S. mutans was established. The compounds were serially diluted in DMSO to 400, 200, 100, 50, 25 and 12.5 then added to S. mutans grown in TH medium plus sucrose. Cultures were incubated for 96 h at 37° C. aerobically. Supernatants with planktonic cells and biofilms were assayed separately for metabolic activity using S. mutans carrying a renilla luciferase reporter. G43 or G43TEG were added at 4 wt % into 50:50 BisGMA/TEGDMA and 70 wt % filler. 0.2 wt % BAPO, 0.05 wt % BHT were used as the photoinitiator and inhibitor, respectively. Polymerization kinetics were assessed for 5 min by near-IR in discs (4 mm by 10 mm diameter), cured with a LED light source (700 mW/cm2, 30 s). Discs were then immersed in deionized H2O for 7 days, with extracted monomers collected every 24 h. Results were analyzed with one-way ANOVA/Tukey's test (α=0.05). […] Polymerizations of dental resins were relatively unaffected by 4% G43 or G43TEG (FIG. 1).

S. mutans [2] = experiment: Biofilm bacterial viability by metabolic activity, renilla luciferase reporter S. mutans; details: at MIC, FIG. 1
Source text: FIG. 2 represents S. mutans bacterial viability as measured using a metabolic activity via arenilla-reporter S. mutans(Merritt2016).
Methods: G43, and its non-binding counterpart, G43TEG (N-(2-carbamoyl-4-(2-(2-(2-(2-hydroxyethoxy)ethoxy)ethoxy)ethoxy)phenyl)-5-nitrobenzo[b]thiophene-2-carboxamide), were synthesized and minimum inhibitory concentration (MIC) against S. mutans was established. The compounds were serially diluted in DMSO to 400, 200, 100, 50, 25 and 12.5 then added to S. mutans grown in TH medium plus sucrose. Cultures were incubated for 96 h at 37° C. aerobically. Supernatants with planktonic cells and biofilms were assayed separately for metabolic activity using S. mutans carrying a renilla luciferase reporter. […] Polymerization kinetics were assessed for 5 min by near-IR in discs (4 mm by 10 mm diameter), cured with a LED light source (700 mW/cm2, 30 s). […] Results were analyzed with one-way ANOVA/Tukey's test (α=0.05). […]
Eight G43 derivatives (G43, G43TEG, G43-TEG-MMA, G43-A2-OMe, G43-A-NH2, G43B-Furan, G43-B1-OMe, G43-C3-OMe, and G16) were synthesized de novo screened against S. mutans for biofilm inhibition. […] Biofilms were stained with crystal violet (CV), washed 3× with DI H2O, and then the CV was volumetrically extracted to colorimetrically determine the quantity of biofilm. […] Results were analyzed with one-way ANOVA/Tukey's test (α=0.05).

S. mutans [3] = experiment: Biofilm quantification by crystal violet (CV) stain, Abs at 562 nm; details: 50 μM, FIGS. 3 & 4
Procedure: FIG. 3 Represents quantification of biofilms grown under different inoculants (50 μM) using crystal violet (CV) stain: (top) Biofilm morphology as visualized after CV stain, (chart) Colorimetrically quantified CV (Absat562 nm) to quantity the biofilm.
FIG. 4 represents quantification of biofilms grown under different inoculants (50 μM) using crystalviolet (CV) stain: (top) Biofilm morphology as visualized after CVstain, (chart) Colorimetrically quantified CV (Absat562 nm) to quantity the biofilm.
[…] G43 derivatives (G43, G43TEG, G43-TEG-MMA, G43-A2-OMe, G43-A-NH2, G43B-Furan, G43-B1-OMe, G43-C3-OMe, and G16) were synthesized de novo screened against S. mutans for biofilm inhibition. The compounds were dissolved in DMSO and serially diluted in H2O at 50 μM, then added to S. mutans cultures (TH medium with sucrose) & incubated for 96 h at 37° C. aerobically. Biofilms were assayed for bacterial viability (metabolic activity via a renilla-reporter S. mutans—Merritt2016). Biofilms were stained with crystal violet (CV), washed 3× with DI H2O, and then the CV was volumetrically extracted to colorimetrically determine the quantity of biofilm. Next, biofilms were washed 3× with DI H2O, then sterilized with EtOH, azeotropically dried. […] Results were analyzed with one-way ANOVA/Tukey's test (α=0.05).

GtfC mutants = experiment: Crystal violet biofilm quantification in four strains of S. mutans (Gtf mutants); details: FIG. 5
Procedure: FIG. 5 represents quantification of biofilms grown using four strains of S. mutans and colorimetrically quantified CV (Absat562 nm) to quantity the biofilm. Note that AGTF denotes which Gtf enzyme(s) are not expressed by the strain.
Eight G43 derivatives (G43, G43TEG, G43-TEG-MMA, G43-A2-OMe, G43-A-NH2, G43B-Furan, G43-B1-OMe, G43-C3-OMe, and G16) were synthesized de novo screened against S. mutans for biofilm inhibition. The compounds were dissolved in DMSO and serially diluted in H2O at 50 μM, then added to S. mutans cultures (TH medium with sucrose) & incubated for 96 h at 37° C. aerobically. Biofilms were assayed for bacterial viability (metabolic activity via a renilla-reporter S. mutans—Merritt2016). Biofilms were stained with crystal violet (CV), washed 3× with DI H2O, and then the CV was volumetrically extracted to colorimetrically determine the quantity of biofilm. Next, biofilms were washed 3× with DI H2O, then sterilized with EtOH, azeotropically dried. Insoluble biofilm was chemically digested by 1) methylation, 2) acid depolymerization, 3) reduction, and 4) acylation, resulting in methylated alditol acetates for polysaccharide connectivity determination by GC/MS. Results were analyzed with one-way ANOVA/Tukey's test (α=0.05).

Row | Structure (SMILES) | MIC (S. mutans [1]) | reduction of viable biofilm cells (S. mutans [2]) | biofilm production (S. mutans [3]) | biofilm reduction in GtfC mutants (GtfC mutants)
1 | NC(=O)c1ccccc1NC(=O)c1cc2cc([N+](=O)[O-])ccc2s1 [G43, N-(2-carbamoylphenyl)-5-nitrobenzo[b]thiophene-2-carboxamide] | 25 to 50 µM | significant reduction | significantly reduced | biofilm reduction efficacy
2 | NC(=O)c1cc(OCCOCCOCCOCCO)ccc1NC(=O)c1cc2cc([N+](=O)[O-])ccc2s1 [G43TEG, N-(2-carbamoyl-4-(2-(2-(2-(2-hydroxyethoxy)ethoxy)ethoxy)ethoxy)phenyl)-5-nitrobenzo[b]thiophene-2-carboxamide] | 25 to 50 µM | significant reduction | significantly reduced | biofilm reduction efficacy
